Our source for the EC50 and IC50 values is patent publication US8871774B2, “Inhibitors of influenza viruses replication” (priority 2010, dated 2014).

The structures appear in SMILES notation. Counter-ions that a name gives are not always drawn. Like-named read-outs stand apart in the source and are kept apart here. Bounds are passed on as bounds.

Experiment [1] relates to Influenza virus, strain A/PR/8/34. Nature of the experiment: microbe, parasite or virus in culture. In kind it is cell-based.
Experiment [2] deals with influenza A virus (A/PR/8/34). Nature of the experiment: cytopathic effect (CPE) assay, MDCK cell protection by ATP detection. Type of experiment: cell-based. The conditions noted are these: mean IC50, MDCK cells, A/PR/8/34, 72 hours, 50% cell protection.
The mark [3] stands for this setting: unidentified influenza virus, PR/8, read-out: bDNA EC50 (uM).
The mark [4] stands for this setting: Influenza A virus, Table 1, read-out: Flu, MDCK IC50.
The mark [5] stands for this setting: Table 1, read-out: Flu, MDCK IC50.

Turning to `O=C(O)[C@H]1C2CCC(CC2)C1Nc1ccnc(-c2n[nH]c3ncc(F)cc23)n1` (mixture of isomers) [Compound I-43, (+/−)-trans-3-((2-(5-fluoro-1H-pyrazolo[3,4-b]pyridin-3-yl)pyrimidin-4-yl)amino)bicyclo[2.2.2]octane-2-carboxylic acid], the EC50 in experiment [1] (setting [3]) is under 3.3 µM. For the same compound, in experiment [2] (Influenza A virus, Table 2, read-out: Flu MDCK IC50), the IC50 is under 3.3 µM.
For the compound `O=C(N[C@@H]1CCC[C@H](Nc2nc(-c3n[nH]c4ncc(Cl)cc34)ncc2F)C1)N1CCOCC1` [Compound I-1, N-((1R,3S)-3-((2-(5-chloro-1H-pyrazolo[3,4-b]pyridin-3-yl)-5-fluoropyrimidin-4-yl)amino)cyclohexyl)morpholine-4-carboxamide], the EC50 in experiment [1] (setting [3]) is under 3.3 µM. Also, the IC50 in experiment [2] (setting [4]) is under 3.3 µM.
`O=C(N[C@@H]1CCC[C@H](Nc2nc(-c3n[nH]c4ncc(Cl)cc34)ncc2F)C1)N1CCCC1` [Compound I-3, N-((1R,3S)-3-((2-(5-chloro-1H-pyrazolo[3,4-b]pyridin-3-yl)-5-fluoropyrimidin-4-yl)amino)cyclohexyl)pyrrolidine-1-carboxamide]: the EC50 in experiment [1] (setting [3]) is under 3.3 µM. Moreover, the IC50 in experiment [2] (setting [4]) is under 3.3 µM.
`O=C(N[C@@H]1CCC[C@H](Nc2nc(-c3n[nH]c4ncc(Cl)cc34)ncc2F)C1)N1CCC[C@H]1CO` [Compound I-4, (S)—N-((1R,3S)-3-((2-(5-chloro-1H-pyrazolo[3,4-b]pyridin-3-yl)-5-fluoropyrimidin-4-yl)amino)cyclohexyl)-2-(hydroxymethyl)pyrrolidine-1-carboxamide]: the EC50 in experiment [1] (setting [3]) is under 3.3 µM. Also, the IC50 in experiment [2] (setting [4]) was under 3.3 µM.
As for `COC1CCN(C(=O)N[C@@H]2CCC[C@H](Nc3nc(-c4n[nH]c5ncc(Cl)cc45)ncc3F)C2)C1` (stereo partly drawn) [Compound I-5, N-((1R,3S)-3-((2-(5-chloro-1H-pyrazolo[3,4-b]pyridin-3-yl)-5-fluoropyrimidin-4-yl)amino)cyclohexyl)-3-methoxypyrrolidine-1-carboxamide], the EC50 in experiment [1] (setting [3]) is under 3.3 µM. The IC50 in experiment [2] (setting [4]) is under 3.3 µM.
With `O=C(N[C@@H]1CCC[C@H](Nc2nc(-c3n[nH]c4ncccc34)ncc2F)C1)N1CCOCC1` [Compound I-7], in experiment [1] (setting [3]), the EC50 is under 3.3 µM. For the same compound, the IC50 in experiment [2] (setting [4]) is under 3.3 µM.
`O=C(O)[C@H]1C2CCC(CC2)[C@@H]1Nc1nc(-c2n[nH]c3ncc(Cl)cc23)ncc1F` [Compound I-9, (2S,3 S)-3-((2-(5-chloro-1H-pyrazolo[3,4-b]pyridin-3-yl)-5-fluoropyrimidin-4-yl)-amino)bicyclo[2.2.2]octane-2-carboxylic acid]: in experiment [1] (setting [3]), the EC50 is under 3.3 µM. The IC50 in experiment [2] (setting [4]) was under 3.3 µM.
For `O=C(O)[C@@H]1C2CCC(CC2)[C@H]1Nc1nc(-c2n[nH]c3ncc(Cl)cc23)ncc1F` [Compound I-10, (2R,3R)-3-((2-(5-chloro-1H-pyrazolo[3,4-b]pyridin-3-yl)-5-fluoropyrimidin-4-yl)-amino)bicyclo[2.2.2]octane-2-carboxylic acid], in experiment [1] (setting [3]), the EC50 was under 3.3 µM. The 50% inhibitory concentration (IC50) in experiment [2] (setting [4]) is under 3.3 µM.
On to `O=C(N[C@@H]1CCC[C@H](Nc2nc(-c3n[nH]c4ncccc34)ncc2F)C1)N1CCCC1` [Compound I-12, N-((1R,3S)-3-((5-fluoro-2-(1H-pyrazolo[3,4-b]pyridin-3-yl)pyrimidin-4-yl)amino)cyclohexyl)pyrrolidine-1-carboxamide], for which the EC50 in experiment [1] (setting [3]) was under 3.3 µM. Moreover, the IC50 in experiment [2] (setting [4]) is under 3.3 µM.
In the case of `C[C@H]1CCCN1C(=O)N[C@@H]1CCC[C@H](Nc2nc(-c3n[nH]c4ncccc34)ncc2F)C1` [Compound I-15, (S)—N-((1R,3S)-3-((5-fluoro-2-(1H-pyrazolo[3,4-b]pyridin-3-yl)pyrimidin-4-yl)-amino)cyclohexyl)-2-methylpyrrolidine-1-carboxamide], in experiment [1] (setting [3]), the half-maximal effective concentration (EC50) is under 3.3 µM. Also, the IC50 in experiment [2] (setting [4]) was under 3.3 µM.
`O=C(N[C@@H]1CCC[C@H](Nc2nc(-c3n[nH]c4ncccc34)ncc2F)C1)N1CCC(F)(F)C1` [Compound I-16, 3,3-difluoro-N-((1R,3S)-3-((5-fluoro-2-(1H-pyrazolo[3,4-b]pyridin-3-yl)pyrimidin-4-yl)amino)cyclohexyl)pyrrolidine-1-carboxamide]: the EC50 in experiment [1] (setting [3]) was under 3.3 µM. The IC50 in experiment [2] (setting [4]) was under 3.3 µM.
Consider `O=C(N[C@@H]1CCC[C@H](Nc2nc(-c3n[nH]c4ncccc34)ncc2F)C1)N1CC[C@H](F)C1` [Compound I-17, (S)-3-fluoro-N-((1R,3S)-3-((5-fluoro-2-(1H-pyrazolo[3,4-b]pyridin-3-yl)pyrimidin-4-yl)amino)cyclohexyl)pyrrolidine-1-carboxamide], for which, in experiment [1] (setting [3]), the EC50 is under 3.3 µM. The IC50 in experiment [2] (setting [4]) was under 3.3 µM.
Consider `C[C@@H]1CCCN1C(=O)N[C@@H]1CCC[C@H](Nc2nc(-c3n[nH]c4ncccc34)ncc2F)C1` [Compound I-18, (R)—N-((1R,3S)-3-((5-fluoro-2-(1H-pyrazolo[3,4-b]pyridin-3-yl)pyrimidin-4-yl)amino)cyclohexyl)-2-methylpyrrolidine-1-carboxamide], for which, in experiment [1] (setting [3]), the EC50 was under 3.3 µM. Moreover, the IC50 in experiment [2] (setting [4]) is under 3.3 µM.
Turning to `O=C(N[C@@H]1CCC[C@H](Nc2nc(-c3n[nH]c4ncccc34)ncc2F)C1)N1CC[C@@H](F)C1` [Compound I-19, (R)-3-fluoro-N-((1R,3S)-3-((5-fluoro-2-(1H-pyrazolo[3,4-b]pyridin-3-yl)pyrimidin-4-yl)amino)cyclohexyl)pyrrolidine-1-carboxamide], the EC50 in experiment [1] (setting [3]) is under 3.3 µM. In addition, the IC50 in experiment [2] (setting [4]) was under 3.3 µM.
For the compound `O=C(N[C@@H]1CCC[C@H](Nc2nc(-c3n[nH]c4ncccc34)ncc2F)C1)N1CCC(F)CC1` [Compound I-20], in experiment [1] (setting [3]), the EC50 was under 3.3 µM. Besides, the IC50 in experiment [2] (setting [4]) was under 3.3 µM.
Take `O=C(N[C@@H]1CCC[C@H](Nc2nc(-c3n[nH]c4ncc(F)cc34)ncc2F)C1)N1CCOCC1` [Compound I-21, N-((1R,3S)-3-((5-fluoro-2-(5-fluoro-1H-pyrazolo[3,4-b]pyridin-3-yl)pyrimidin-4-yl)amino)cyclohexyl)morpholine-4-carboxamide]: the EC50 in experiment [1] (setting [3]) is under 3.3 µM. In addition, the concentration for half-maximal inhibition (IC50) in experiment [2] (setting [4]) was under 3.3 µM.
For the compound `O=C(N[C@@H]1CCC[C@H](Nc2nc(-c3n[nH]c4ncccc34)ncc2F)C1)N1CCCCC1` [Compound I-22, N-((1R,3S)-3-((5-fluoro-2-(1H-pyrazolo[3,4-b]pyridin-3-yl)pyrimidin-4-yl)amino)-cyclohexyl)piperidine-1-carboxamide], the EC50 in experiment [1] (setting [3]) was under 3.3 µM. Besides, the IC50 in experiment [2] (setting [4]) is under 3.3 µM.
Turning to `O=C(N[C@@H]1CCC[C@H](Nc2nc(-c3n[nH]c4ncc(F)cc34)ncc2F)C1)N1CC[C@@H](F)C1` [Compound I-23, (R)-3-fluoro-N-((1R,3S)-3-((5-fluoro-2-(5-fluoro-1H-pyrazolo[3,4-b]pyridin-3-yl)pyrimidin-4-yl)amino)cyclohexyl)pyrrolidine-1-carboxamide], the EC50 in experiment [1] (setting [3]) is under 3.3 µM. Moreover, the IC50 in experiment [2] (setting [4]) is under 3.3 µM.
As for `Cn1cnc(C(=O)N[C@@H]2CCC[C@H](Nc3nc(-c4n[nH]c5ncccc45)ncc3F)C2)c1` [Compound I-24, N-((1R,3S)-3-((5-fluoro-2-(1H-pyrazolo[3,4-b]pyridin-3-yl)pyrimidin-4-yl)amino)cyclohexyl)-1-methyl-1H-imidazole-4-carboxamide], the EC50 in experiment [1] (setting [3]) was under 3.3 µM. Further, the IC50 in experiment [2] (setting [4]) is under 3.3 µM.
In the case of `C[C@H]1CCN(C(=O)N[C@@H]2CCC[C@H](Nc3nc(-c4n[nH]c5ncccc45)ncc3F)C2)C1` [Compound I-25, (S)—N-((1R,3S)-3-((5-fluoro-2-(1H-pyrazolo[3,4-b]pyridin-3-yl)pyrimidin-4-yl)-amino)cyclohexyl)-3-methylpyrrolidine-1-carboxamide], in experiment [1] (setting [3]), the EC50 is under 3.3 µM. The IC50 in experiment [2] (setting [4]) is under 3.3 µM.
With `Cn1cncc1C(=O)N[C@@H]1CCC[C@H](Nc2nc(-c3n[nH]c4ncc(F)cc34)ncc2F)C1` [Compound I-27, N-((1R,3S)-3-((5-fluoro-2-(5-fluoro-1H-pyrazolo[3,4-b]pyridin-3-yl)pyrimidin-4-yl)amino)cyclohexyl)-1-methyl-tH-imidazole-5-carboxamide], the EC50 in experiment [1] (Table 1, mean EC50, viral RNA level 50% of control wells, read-out: bDNA EC50) is under 3.3 µM. Besides, the IC50 in experiment [2] (setting [5]) is under 3.3 µM.
Take `O=C(O)[C@H]1C2CCC(CC2)[C@@H]1Nc1nc(-c2n[nH]c3ncc(F)cc23)ncc1F` [Compound I-29]: the EC50 in experiment [1] (setting [3]) was under 3.3 µM. The IC50 in experiment [2] (setting [4]) was under 3.3 µM.
Regarding `O=C(O)[C@H]1C2CCC(CC2)[C@@H]1Nc1nc(-c2n[nH]c3ncc(F)cc23)ncc1F` [Compound I-31, (2S,3S)-3-(5-fluoro-2-(5-fluoro-1H-pyrazolo[3,4-b]pyridin-3-yl)pyrimidin-4-ylamino)bicyclo[2.2.2]octane-2-carboxylic acid sodium salt], the EC50 in experiment [1] (read-out: bDNA EC50, Table 1, mean EC50, viral RNA level 50% of control wells) was under 3.3 µM. Further, the IC50 in experiment [2] (setting [5]) was under 3.3 µM.
In the case of `O=C(O)[C@H]1C2CCC(CC2)[C@@H]1Nc1nc(-c2n[nH]c3ncc(F)cc23)ncc1Cl` [Compound I-34, (2S,3S)-3-((5-chloro-2-(5-fluoro-1H-pyrazolo[3,4-b]pyridin-3-yl)pyrimidin-4-yl)amino)bicyclo[2.2.2]octane-2-carboxylic acid], the EC50 in experiment [1] (setting [3]) was under 3.3 µM. In addition, the IC50 in experiment [2] (setting [4]) was under 3.3 µM.
For `O=C(O)[C@@H]1C2CCC(CC2)[C@H]1Nc1nc(-c2n[nH]c3ncc(F)cc23)ncc1Cl` [Compound I-35, (2R,3R)-3-((5-chloro-2-(5-fluoro-1H-pyrazolo[3,4-b]pyridin-3-yl)pyrimidin-4-yl)amino)bicyclo[2.2.2]octane-2-carboxylic acid], the EC50 in experiment [1] (setting [3]) was under 3.3 µM. The half-maximal inhibitory concentration (IC50) in experiment [2] (setting [4]) was under 3.3 µM.
In the case of `O=C(O)[C@@H]1CCCC2(CCCC2)[C@@H]1Nc1nc(-c2n[nH]c3ncc(F)cc23)ncc1F` [Compound I-38], the EC50 in experiment [1] (setting [3]) is under 3.3 µM. The IC50 in experiment [2] (setting [4]) is under 3.3 µM.

For orientation: EC50 means the concentration giving half of the maximal effect. Usually IC50 stands for the concentration at which inhibition is half-maximal.
